We go through 22 molecules from patent US11459298B2, “Class of dicationic compounds as well as the preparative method and the use thereof” (WEST CHINA HOSPITAL, SICHUAN UNIVERSITY, priority 2018, dated 2022).

Test [1] deals with New Zealand white rabbits. Put plainly: Experiment on muscle relaxation in anesthetized rabbits (TOF neuromuscular transmission monitor). The test is classed as in vivo, rabbit. The following applies: for ED (2 x ED95): Oryctolagus cuniculus, intravenous injection, propofol anesthesia; for ED (2 x ED95) / Onset time / Recovery time: N = 8; for Onset time: TOF=0, after i.v. 2× ED95 equivalent dose; for Recovery time: TOF=90%, after i.v. 2× ED95 equivalent dose; for change characteristics of TOF 1-4 after administration: depolarizing vs non-depolarizing pattern. Here is the method:
Male New Zealand white rabbits weighing 2-3.5 kg were used as experimental animals for muscle relaxation test. The specific procedures were: propofol emulsion was intravenously administrated to induce and maintain general anesthesia (induction dose: 10 mg/kg; maintenance dose: […]). Tracheal intubation was carried out and respiratory support was used.

For a further test, the system named is human body. The conditions noted are these: after single administration, clinical use; cited from earlier work.

Turning to `COc1ccc(C[C@@H]2c3cc(OC)c(OC)cc3CC[N@+]2(C)CCC(=O)OCCCCCOC(=O)CC[N@@+]2(C)CCc3cc(OC)c(OC)cc3[C@H]2Cc2ccc(OC)c(OC)c2)cc1OC` [Cisatracurium, reference compound], in test [1], the ED (2 x ED95) is 0.08 mg/kg; the Onset time was >90 s; the Recovery time turned out to be 17.6 ± 5.2 min; the “change characteristics of TOF 1-4 after administration” value is “successively and gradually decreased, rather than in equal proportion”.
With `C[N+](CCCCOC(=O)OCOC(=O)C[N+]1(Cc2ccc([N+](=O)[O-])cc2)CCCCC1)(Cc1ccccc1)Cc1ccc([N+](=O)[O-])cc1` (centres unmarked) [Compound 1], in test [1], the ED (2 x ED95) is 0.8 mg/kg, the Onset time is reported as <40 s and the Recovery time is given as 5.2 ± 1.1 min.
For `C[N+](CCOC(=O)OCOC(=O)C[N+]1(Cc2ccc([N+](=O)[O-])cc2)CCCCC1)(Cc1ccccc1)Cc1ccc([N+](=O)[O-])cc1` (centres unmarked) [Compound 2] the same measures were 0.9 mg/kg, <40 s and 6.4 ± 1.4 min.
The corresponding values for `C[N+](CCOC(=O)OCOC(=O)CCC[N+]1(Cc2ccc([N+](=O)[O-])cc2)CCCCC1)(Cc1ccc(F)cc1)Cc1ccc([N+](=O)[O-])cc1` (centres unmarked) [Compound 3] are 1.8 mg/kg, <40 s and 4.8 ± 0.5 min.
The corresponding values for `C[N+](CCOC(=O)OCOC(=O)CCC[N+]1(Cc2ccc([N+](=O)[O-])cc2)CCCCC1)(Cc1ccc(Cl)cc1)Cc1ccc([N+](=O)[O-])cc1` (centres unmarked) [Compound 4] are 1.4 mg/kg, <40 s and 5.4 ± 0.9 min.
`C[N+](CCOC(=O)OCOC(=O)CCC[N+]1(Cc2ccc([N+](=O)[O-])cc2)CCCCC1)(Cc1ccc([N+](=O)[O-])cc1)Cc1ccc(Cl)cc1Cl` (centres unmarked) [Compound 5]: in test [1], the ED (2 x ED95) came to 1.6 mg/kg, the Onset time is given as <40 s and the Recovery time was determined as 5.2 ± 1.2 min.
`C[N+](CCOC(=O)OCOC(=O)CCC[N+]1(Cc2ccc([N+](=O)[O-])cc2)CCCCC1)(Cc1ccc([N+](=O)[O-])cc1)Cc1c(F)cccc1F` (centres unmarked) [Compound 6]: in test [1], the ED (2 x ED95) was 0.8 mg/kg, the Onset time is recorded as <40 s and the Recovery time amounted to 4.1 ± 1.1 min.
For `C[N+](CCOC(=O)OCOC(=O)CCC[N+]1(Cc2ccc([N+](=O)[O-])cc2)CCCCC1)(Cc1ccc([N+](=O)[O-])cc1)Cc1ccc([N+](=O)[O-])cc1` [Compound 7] the same measures were 1.6 mg/kg, <40 s and 5.2 ± 1.1 min.
The corresponding values for `C[N+](CCOC(=O)OCOC(=O)CCC[N+]1(Cc2ccc([N+](=O)[O-])cc2)CCCCC1)(Cc1ccc(C#N)cc1)Cc1ccc([N+](=O)[O-])cc1` (centres unmarked) [Compound 8] are 1.7 mg/kg, <40 s and 7.2 ± 1.4 min.
With `C[N+](CCOC(=O)OCOC(=O)CCC[N+]1(Cc2ccc([N+](=O)[O-])cc2)CCCCC1)(Cc1ccc([N+](=O)[O-])cc1)Cc1ccc(C(F)(F)F)cc1` (centres unmarked) [Compound 9], in test [1], the ED (2 x ED95) is 1.6 mg/kg, the Onset time is <40 s and the Recovery time is 5.2 ± 1.2 min.
As for `C[N+](CCOC(=O)OCOC(=O)CCC[N+]1(Cc2ccc(C(F)(F)F)cc2)CCCCC1)(Cc1ccccc1)Cc1ccc([N+](=O)[O-])cc1` (centres unmarked) [Compound 10], in test [1], the ED (2 x ED95) amounted to 2.4 mg/kg, the Onset time was <40 s and the Recovery time amounted to 6.2 ± 0.9 min.
Take `C[N+](CCOC(=O)OCOC(=O)CCC[N+]1(Cc2ccc([N+](=O)[O-])cc2)CCCCC1)(Cc1ccc(-c2ccccc2)cc1)Cc1ccc([N+](=O)[O-])cc1` (centres unmarked) [Compound 11]: in test [1], the ED (2 x ED95) worked out at 1.5 mg/kg, the Onset time was <40 s and the Recovery time amounted to 7.7 ± 1.6 min.
The corresponding values for `COc1ccc(C[N+](C)(CCOC(=O)OCOC(=O)CCC[N+]2(Cc3ccc(OC)c(OC)c3)CCCCC2)Cc2ccc(OC)c(OC)c2)cc1OC` [Compound 12] are 4.4 mg/kg, <40 s and 6.3 ± 2.1 min.
As for `Cc1ccc(C[N+](C)(CCCCOC(=O)OCOC(=O)C[N+]2(Cc3ccc(C)c(C)c3)CCCCC2)Cc2ccc(C)c(C)c2)cc1C` [Compound 13], in test [1], the ED (2 x ED95) is 6.2 mg/kg, the Onset time was <40 s and the Recovery time amounted to 6.9 ± 1.7 min.
The corresponding values for `C[N+](CCOC(=O)OCOC(=O)COCC[N+]1(Cc2ccc([N+](=O)[O-])cc2)CCCCC1)(Cc1ccccc1)Cc1ccc([N+](=O)[O-])cc1` (centres unmarked) [Compound 19] are 0.8 mg/kg, <40 s and 4.1 ± 0.8 min.
Turning to `CC1CC[N+](CCCC(=O)OCOC(=O)OCC[N+](C)(Cc2ccccc2)Cc2ccc([N+](=O)[O-])cc2)(Cc2ccc([N+](=O)[O-])cc2)CC1` (centres unmarked) [Compound 35], in test [1], the ED (2 x ED95) was found to be 1 mg/kg, the Onset time is given as <40 s and the Recovery time is 7.2 ± 2.3 min.
The corresponding values for `C[N+](CCOC(=O)OCOC(=O)CCC[N+]1(Cc2ccc([N+](=O)[O-])cc2)CCCCC1)(Cc1ccc([N+](=O)[O-])cc1)Cc1ccsc1` (centres unmarked) [Compound 38] are 1.2 mg/kg, <40 s and 4.4 ± 1.1 min.
In the case of `C[N+](CCOC(=O)OCOC(=O)CCC[N+]1(Cc2ccc([N+](=O)[O-])cc2)CCC(F)(F)CC1)(Cc1ccccc1)Cc1ccc([N+](=O)[O-])cc1` (centres unmarked) [Compound 45], in test [1], the ED (2 x ED95) worked out at 0.8 mg/kg, the Onset time is reported as <40 s and the Recovery time amounted to 5.1 ± 1.4 min.
`C[N+](CCOC(=O)OCOC(=O)CCC[N+]1(Cc2ccc([N+](=O)[O-])cc2)CCCC1)(Cc1ccc(F)cc1)Cc1ccc([N+](=O)[O-])cc1` (centres unmarked) [Compound 47]: in test [1], the ED (2 x ED95) was determined as 1.4 mg/kg, the Onset time is <40 s and the Recovery time amounted to 3.1 ± 0.7 min.
As for `C[N+](C)(C)CCOC(=O)CCC(=O)OCC[N+](C)(C)C` [Succinylcholine, reference compound], in test [1], the ED (2 x ED95) was found to be 1.8 mg/kg, the Onset time was <40 s, the Recovery time is reported as 13.3 ± 3.5 min and the “change characteristics of TOF 1-4 after administration” value is reported as “decreased in the same proportion until disappearance”. For the same molecule, in the test on human body, the “duration of muscle relaxation / action time” value is listed as 10 min.
In the case of `CC(=O)O[C@H]1C[C@@H]2CC[C@@H]3[C@H](CC[C@@]4(C)[C@H]3C[C@H]([N+]3(C)CCCCC3)[C@@H]4OC(C)=O)[C@@]2(C)C[C@@H]1[N+]1(C)CCCCC1` [pancuronium], the “duration of muscle relaxation / action time” value in the test on human body is on record as > 60 min.
Consider micuronium, for which the “duration of muscle relaxation / action time” value in the test with human body was 15 to 20 min.
